These results are taken from patent US11814444B2, “Cyclic polypeptides for PCSK9 inhibition” (Ra Pharmaceuticals, Inc., priority 2018, dated 2023).

In the experiment the target is human PCSK9 / human LDLR EGFa domain interaction (Homo sapiens, UniProt Q8NBP7). Put plainly: TR-FRET assay of inhibition of the PCSK9-LDLR protein-protein interaction. The class given is binding. The settings on record: 20 nM avitag-biotinylated human PCSK9, 20 nM his-tagged human LDLR EGFa domain, 2 hours, room temperature. The protocol:
A time-resolved fluorescence resonance energy (TR-FRET) assay was used to measure inhibition of the PCSK9-LDLR protein-protein interaction. Briefly, 20 nM avitag-biotinylated human PCSK9 was incubated with 20 nM his-tagged human LDLR EGFa domain in the presence of 5 nM LANCE Ulight Streptavidin (Perkin Elmer) and 5 nM europium-Anti-6×His (Perkin Elmer) for 2 hours covered at room temperature in buffer containing 50 mM HEPES, 150 mM NaCl, 5 mM CaCl2), 0.01% BSA and 0.01% Surfactant P20. Compounds were tested in dose-response and concentrations giving half-maximal inhibition calculated using a 4-parameter fit equation.
In general terms: In TR-FRET formats the signal depends on donor and acceptor labels being close together.

pIC50: −log10 of the molar value. Numbered stars: 1 amine (or outer) side, 2 acyl side, 3 side chain; on linkers, the order of the positions; unused ones are H or OH. Bridge positions count the residues as written; N and C are the ends. Square brackets hold non-standard residues; d marks the D form. Peptide text beside a SMILES is read from it. Phe(4-COOH) = N[C@@H](Cc1ccc(C(=O)O)cc1)C(=O)O; Trp(7-aza) = N[C@@H](Cc1c[nH]c2ncccc12)C(=O)O; NMeW = CN[C@@H](Cc1c[nH]c2ccccc12)C(=O)O; 1Nal = N[C@@H](Cc1cccc2ccccc12)C(=O)O; 2Nal = N[C@@H](Cc1ccc2ccccc2c1)C(=O)O; Ac4c(3,3-F2) = NC1(C(=O)O)CC(F)(F)C1; mXylylene = c1cc(C[*:1])cc(C[*:2])c1; Bta = N[C@@H](Cc1csc2ccccc12)C(=O)O; Gly(octyl) = CCCCCCCC[C@H](N)C(=O)O; Val(3-OH) = CC(C)(O)[C@H](N)C(=O)O; Aic = NC1(C(=O)O)Cc2ccccc2C1; Chg = N[C@H](C(=O)O)C1CCCCC1; Tle = CC(C)(C)[C@H](N)C(=O)O; αMeV = CC(C)[C@](C)(N)C(=O)O; hSer = N[C@@H](CCO)C(=O)O; Iva = CC[C@](C)(N)C(=O)O; Nva = CCC[C@H](N)C(=O)O; Ac4c = NC1(C(=O)O)CCC1; Mpa = O=C(O)CCS

Chain of human PCSK9 / human LDLR EGFa domain interaction (Q8NBP7 153-692): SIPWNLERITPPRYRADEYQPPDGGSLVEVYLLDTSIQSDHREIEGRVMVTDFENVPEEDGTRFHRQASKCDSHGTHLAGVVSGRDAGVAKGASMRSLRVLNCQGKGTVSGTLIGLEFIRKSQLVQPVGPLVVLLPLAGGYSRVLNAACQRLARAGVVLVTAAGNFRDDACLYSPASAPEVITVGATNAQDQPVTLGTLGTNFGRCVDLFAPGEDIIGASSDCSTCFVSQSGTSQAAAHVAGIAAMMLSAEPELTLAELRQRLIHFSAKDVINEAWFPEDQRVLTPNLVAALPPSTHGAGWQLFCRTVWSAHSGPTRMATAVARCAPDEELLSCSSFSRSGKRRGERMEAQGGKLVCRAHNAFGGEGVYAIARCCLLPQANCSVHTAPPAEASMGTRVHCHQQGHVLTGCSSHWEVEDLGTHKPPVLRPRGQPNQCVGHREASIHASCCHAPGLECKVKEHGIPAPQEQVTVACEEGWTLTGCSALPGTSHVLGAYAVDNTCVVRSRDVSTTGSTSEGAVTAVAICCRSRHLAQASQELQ
Chain of human PCSK9 / human LDLR EGFa domain interaction (Q8NBP7 31-152 partner limits assumed): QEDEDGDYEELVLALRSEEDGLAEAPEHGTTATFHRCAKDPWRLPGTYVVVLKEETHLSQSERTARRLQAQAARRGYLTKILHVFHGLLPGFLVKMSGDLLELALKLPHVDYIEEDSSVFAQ

Compound `CCCCCCCC[C@@H]1NC(=O)[C@H](Cc2c[nH]c3ncccc23)NC(=O)[C@H]([C@@H](C)O)NC(=O)[C@@H]2CCCN2C(=O)[C@H](Cc2ccc(O)cc2)NC(=O)[C@H](C(C)(C)C)NC(=O)CCSCc2cccc(c2)CSC[C@@H](C(N)=O)NC(=O)[C@H]([C@@H](C)O)NC(=O)[C@H](CCC)NC(=O)[C@H](Cc2ccc(O)cc2)NC(=O)[C@H](C)NC1=O` [Compound 169] ([Mpa][Tle]YPT[Trp(7-aza)][Gly(octyl)]AY[Nva]TC-NH2; linker 1-12 via mXylylene) gave a pIC50 of 6.00 to 7.00.
The compound `CCC[C@@H]1NC(=O)[C@H](Cc2c[nH]c3ncccc23)NC(=O)[C@H]([C@@H](C)O)NC(=O)[C@@H]2CCCN2C(=O)[C@H](Cc2ccc(O)cc2)NC(=O)[C@H](C(C)(C)C)NC(=O)CCSCc2cccc(c2)CSC[C@@H](C(N)=O)NC(=O)[C@H](CCC(=O)O)NC(=O)[C@H](C2CCCCC2)NC(=O)[C@H](Cc2ccc(O)cc2)NC(=O)[C@H](C)NC1=O` [Compound 171] ([Mpa][Tle]YPT[Trp(7-aza)][Nva]AY[Chg]EC-NH2; linker 1-12 via mXylylene) showed a negative logarithm of the IC50 (pIC50) of 4.68 to 6.00.
Consider `CCC[C@@H]1NC(=O)[C@H](Cc2ccc(O)cc2)NC(=O)[C@H](C)NC(=O)[C@H](CCC)NC(=O)[C@H](Cc2c[nH]c3ncccc23)NC(=O)[C@H]([C@@H](C)O)NC(=O)[C@@H]2CCCN2C(=O)[C@H](Cc2ccc(O)cc2)NC(=O)[C@H](C(C)(C)C)NC(=O)CCSCc2cccc(c2)CSC[C@@H](C(N)=O)NC(=O)[C@H](C)NC1=O` [Compound 172] ([Mpa][Tle]YPT[Trp(7-aza)][Nva]AY[Nva]AC-NH2; linker 1-12 via mXylylene), for which the pIC50 is 4.68 to 6.00.
Compound `CCC[C@@H]1NC(=O)[C@H]([C@@H](C)O)NC(=O)[C@@H]2CCCN2C(=O)[C@H](Cc2ccc(O)cc2)NC(=O)[C@H](C(C)(C)C)NC(=O)[C@@H](NC(C)=O)CSCc2cccc(c2)CSC[C@@H](C(N)=O)NC(=O)[C@H]([C@@H](C)O)NC(=O)[C@](C)(C(C)C)NC(=O)[C@H](Cc2ccc(O)cc2)NC(=O)[C@H](C)NC1=O` [Compound 173] (Ac-C[Tle]YPT[Nva]AY[αMeV]TC-NH2; linker 1-11 via mXylylene) gave a pIC50 of 6.00 to 7.00.
`CCC[C@@H]1NC(=O)[C@H](Cc2c[nH]c3ccccc23)NC(=O)[C@H]([C@@H](C)O)NC(=O)[C@@H]2CCCN2C(=O)[C@H](Cc2ccc(O)cc2)NC(=O)[C@H](C(C)(C)C)NC(=O)CCSCc2cccc(c2)CSC[C@@H](C(N)=O)NC(=O)[C@H]([C@@H](C)O)NC(=O)[C@](C)(C(C)C)NC(=O)[C@H](Cc2ccc(O)cc2)NC(=O)[C@H](C)NC1=O` [Compound 177] ([Mpa][Tle]YPTW[Nva]AY[αMeV]TC-NH2; linker 1-12 via mXylylene) showed a negative-log IC50 (pIC50) of 4.68 to 6.00.
As for `CC[C@]1(C)NC(=O)[C@H](Cc2c[nH]c3ncccc23)NC(=O)[C@H]([C@@H](C)O)NC(=O)[C@@H]2CCCN2C(=O)[C@H](Cc2ccc(O)cc2)NC(=O)[C@H](C(C)(C)C)NC(=O)[C@@H](NC(C)=O)CSCc2cccc(c2)CSC[C@H](C(N)=O)NC(=O)[C@H]([C@@H](C)O)NC(=O)[C@](C)(C(C)C)NC(=O)[C@H](Cc2ccc(O)cc2)NC(=O)[C@H](C)NC1=O` [Compound 193] (Ac-C[Tle]YPT[Trp(7-aza)][Iva]AY[αMeV]T[dC]-NH2; linker 1-12 via mXylylene), the pIC50 is 7.00 to 9.00.
Take `CC(=O)N[C@H]1CSCc2cccc(c2)CSC[C@H](C(N)=O)NC(=O)[C@H]([C@@H](C)O)NC(=O)[C@](C)(C(C)C)NC(=O)[C@H](Cc2ccc(O)cc2)NC(=O)[C@H](C)NC(=O)C2(CCC2)NC(=O)[C@H](Cc2c[nH]c3ncccc23)NC(=O)[C@H](C(C)(C)O)NC(=O)[C@@H]2CCCN2C(=O)[C@H](Cc2ccc(O)cc2)NC(=O)[C@H](C(C)(C)C)NC1=O` [Compound 194] (Ac-C[Tle]YP[Val(3-OH)][Trp(7-aza)][Ac4c]AY[αMeV]T[dC]-NH2; linker 1-12 via mXylylene): the pIC50 was 7.00 to 9.00.
The compound `CC(=O)N[C@H]1CSCc2cccc(c2)CSC[C@H](C(N)=O)NC(=O)[C@H]([C@@H](C)O)NC(=O)[C@](C)(C(C)C)NC(=O)[C@H](Cc2ccc(O)cc2)NC(=O)[C@H](C)NC(=O)C2(CC(F)(F)C2)NC(=O)[C@H](Cc2c[nH]c3ncccc23)NC(=O)[C@H]([C@@H](C)O)NC(=O)[C@@H]2CCCN2C(=O)[C@H](Cc2ccc(O)cc2)NC(=O)[C@H](C(C)(C)C)NC1=O` [Compound 195] (Ac-C[Tle]YPT[Trp(7-aza)][Ac4c(3,3-F2)]AY[αMeV]T[dC]-NH2; linker 1-12 via mXylylene) had a negative logarithm of the IC50 (pIC50) of 4.68 to 6.00.
For `CC(=O)N[C@H]1CSCc2cccc(c2)CSC[C@H](C(N)=O)NC(=O)[C@H]([C@@H](C)O)NC(=O)[C@](C)(C(C)C)NC(=O)[C@H](Cc2ccc(O)cc2)NC(=O)[C@H](C)NC(=O)C2(Cc3ccccc3C2)NC(=O)[C@H](Cc2c[nH]c3ncccc23)NC(=O)[C@H]([C@@H](C)O)NC(=O)[C@@H]2CCCN2C(=O)[C@H](Cc2ccc(O)cc2)NC(=O)[C@H](C(C)(C)C)NC1=O` [Compound 196] (Ac-C[Tle]YPT[Trp(7-aza)][Aic]AY[αMeV]T[dC]-NH2; linker 1-12 via mXylylene) the value was 6.00 to 7.00.
As to `CCC[C@@H]1NC(=O)[C@H](Cc2c[nH]c3ncccc23)NC(=O)[C@H]([C@@H](C)O)NC(=O)[C@@H](Cc2cnc[nH]2)NC(=O)[C@H](Cc2ccc(O)cc2)NC(=O)[C@H](C(C)(C)C)NC(=O)CCSCc2cccc(c2)CSC[C@@H](C(N)=O)NC(=O)[C@H]([C@@H](C)O)NC(=O)[C@H](CCC)NC(=O)[C@H](Cc2ccc(O)cc2)NC(=O)[C@H](CCC(=O)O)NC1=O` [Compound 204] ([Mpa][Tle]Y[dH]T[Trp(7-aza)][Nva]EY[Nva]TC-NH2; linker 1-12 via mXylylene), the negative logarithm of the IC50 (pIC50) was 4.68 to 6.00.
In turn, `CCC[C@@H]1NC(=O)[C@H](Cc2ccc(O)cc2)NC(=O)[C@H](CCC(=O)O)NC(=O)[C@H](CCC)NC(=O)[C@H](Cc2c[nH]c3ccccc23)N(C)C(=O)[C@H]([C@@H](C)O)NC(=O)[C@H](Cc2c[nH]cn2)NC(=O)[C@H](Cc2ccc(O)cc2)NC(=O)[C@H](C(C)(C)C)NC(=O)CCSCc2cccc(c2)CSC[C@@H](C(N)=O)NC(=O)[C@H]([C@@H](C)O)NC1=O` [Compound 206] ([Mpa][Tle]YHT[NMeW][Nva]EY[Nva]TC-NH2; linker 1-12 via mXylylene) gave a negative-log IC50 (pIC50) of 4.00 to 4.30.
`CCC[C@@H]1NC(=O)[C@H](Cc2c[nH]c3ncccc23)NC(=O)[C@H]([C@@H](C)O)NC(=O)[C@H](Cc2c[nH]cn2)NC(=O)[C@H](Cc2ccc(O)cc2)NC(=O)[C@H](C(C)(C)C)NC(=O)CCSCc2cccc(c2)CSC[C@@H](C(N)=O)NC(=O)[C@H]([C@@H](C)O)NC(=O)[C@H](CCC)NC(=O)[C@H](Cc2ccc(O)cc2)NC(=O)[C@H](CCO)NC1=O` [Compound 274] ([Mpa][Tle]YHT[Trp(7-aza)][Nva][hSer]Y[Nva]TC-NH2; linker 1-12 via mXylylene) had a negative-log IC50 (pIC50) of 6.00 to 7.00.
With `CCC[C@@H]1NC(=O)[C@H](Cc2csc3ccccc23)NC(=O)[C@H]([C@@H](C)O)NC(=O)[C@H](Cc2c[nH]cn2)NC(=O)[C@H](Cc2ccc(O)cc2)NC(=O)[C@H](C(C)(C)C)NC(=O)CCSCc2cccc(c2)CSC[C@@H](C(N)=O)NC(=O)[C@H]([C@@H](C)O)NC(=O)[C@H](CCC)NC(=O)[C@H](Cc2ccc(O)cc2)NC(=O)[C@H](CCC(=O)O)NC1=O` [Compound 275] ([Mpa][Tle]YHT[Bta][Nva]EY[Nva]TC-NH2; linker 1-12 via mXylylene), the pIC50 is 6.00 to 7.00.
Then `CCC[C@@H]1NC(=O)[C@H](Cc2ccc3ccccc3c2)NC(=O)[C@H]([C@@H](C)O)NC(=O)[C@H](Cc2c[nH]cn2)NC(=O)[C@H](Cc2ccc(O)cc2)NC(=O)[C@H](C(C)(C)C)NC(=O)CCSCc2cccc(c2)CSC[C@@H](C(N)=O)NC(=O)[C@H]([C@@H](C)O)NC(=O)[C@H](CCC)NC(=O)[C@H](Cc2ccc(O)cc2)NC(=O)[C@H](CCC(=O)O)NC1=O` [Compound 276] ([Mpa][Tle]YHT[2Nal][Nva]EY[Nva]TC-NH2; linker 1-12 via mXylylene), with 4.68 to 6.00; and `CCC[C@@H]1NC(=O)[C@H](Cc2cccc3ccccc23)NC(=O)[C@H]([C@@H](C)O)NC(=O)[C@H](Cc2c[nH]cn2)NC(=O)[C@H](Cc2ccc(O)cc2)NC(=O)[C@H](C(C)(C)C)NC(=O)CCSCc2cccc(c2)CSC[C@@H](C(N)=O)NC(=O)[C@H]([C@@H](C)O)NC(=O)[C@H](CCC)NC(=O)[C@H](Cc2ccc(O)cc2)NC(=O)[C@H](CCC(=O)O)NC1=O` [Compound 277] ([Mpa][Tle]YHT[1Nal][Nva]EY[Nva]TC-NH2; linker 1-12 via mXylylene), with 6.00 to 7.00; and `CCC[C@@H]1NC(=O)[C@H](Cc2c[nH]c3ncccc23)NC(=O)[C@H]([C@@H](C)O)NC(=O)[C@H](Cc2c[nH]cn2)NC(=O)[C@H](Cc2ccc(O)cc2)NC(=O)[C@H](C(C)(C)C)NC(=O)CCSCc2cccc(c2)CSC[C@@H](C(N)=O)NC(=O)[C@H]([C@@H](C)O)NC(=O)[C@H](CCC)NC(=O)[C@H](Cc2ccc(O)cc2)NC(=O)[C@H](Cc2ccc(C(=O)O)cc2)NC1=O` [Compound 278] ([Mpa][Tle]YHT[Trp(7-aza)][Nva][Phe(4-COOH)]Y[Nva]TC-NH2; linker 1-12 via mXylylene), with 4.30 to 4.68.
As to `CCC[C@@H]1NC(=O)[C@H](Cc2c[nH]c3ncccc23)NC(=O)[C@H]([C@@H](C)O)NC(=O)[C@H](Cc2c[nH]cn2)NC(=O)[C@H](Cc2ccc(O)cc2)NC(=O)[C@H](C(C)(C)C)NC(=O)CCSCc2cccc(c2)CSC[C@@H](C(N)=O)NC(=O)[C@H]([C@@H](C)O)NC(=O)[C@H](C2CCCCC2)NC(=O)[C@H](Cc2ccc(O)cc2)NC(=O)[C@H](CCC(=O)O)NC1=O` [Compound 285] ([Mpa][Tle]YHT[Trp(7-aza)][Nva]EY[Chg]TC-NH2; linker 1-12 via mXylylene), the pIC50 was 6.00 to 7.00.

What is called pIC50 is the negative decadic logarithm of the IC50, by convention in mol/L. Low values mean a high IC50, high ones a low IC50.
